Experimental data as given in ChEMBL document CHEMBL1938369, “A small molecule inhibitor of p53-inducible protein phosphatase PPM1D” (Bioorg Med Chem Lett, 2012).
pIC50: −log10 of the molar value. Calls of active or inactive are those of the source. The rule behind the calls is not given here.

Columns and labels:
[1] = target: T1, Protein phosphatase 1D (Homo sapiens) (UniProt O15297); assay: Inhibition of N-terminal histidine-tagged PPM1Dc at 4 uM after 10 mins by BIOMOL GREEN assay
T1 sequence (whole entry): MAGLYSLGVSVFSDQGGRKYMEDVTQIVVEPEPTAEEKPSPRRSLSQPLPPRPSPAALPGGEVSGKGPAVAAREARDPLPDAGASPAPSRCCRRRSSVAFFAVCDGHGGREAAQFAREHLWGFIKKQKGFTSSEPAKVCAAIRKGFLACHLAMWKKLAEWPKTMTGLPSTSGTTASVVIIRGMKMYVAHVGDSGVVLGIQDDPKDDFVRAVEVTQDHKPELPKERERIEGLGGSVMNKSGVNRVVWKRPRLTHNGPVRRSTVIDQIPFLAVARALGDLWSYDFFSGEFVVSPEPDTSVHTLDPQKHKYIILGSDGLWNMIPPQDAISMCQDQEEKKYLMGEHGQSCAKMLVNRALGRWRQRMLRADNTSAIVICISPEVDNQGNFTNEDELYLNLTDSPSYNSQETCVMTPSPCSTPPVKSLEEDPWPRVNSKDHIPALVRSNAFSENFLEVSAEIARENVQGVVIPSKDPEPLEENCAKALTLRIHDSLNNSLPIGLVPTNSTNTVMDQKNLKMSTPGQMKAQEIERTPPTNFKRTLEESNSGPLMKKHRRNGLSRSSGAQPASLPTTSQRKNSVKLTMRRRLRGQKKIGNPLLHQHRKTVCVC

MCF7 [2] = assay: Antiproliferative activity against human MCF7 cells overexpressing PPM1D at 40 uM after 1 to 5 days by trypan blue assay; type: functional
[3] = target: T2, Protein phosphatase 1A (Homo sapiens) (UniProt P35813); assay: Inhibition of wild-type PPM1A expressed in BL21(DE3)pLysS cells at 40 uM after 10 mins by BIOMOL GREEN assay; type: cell-based
T2 sequence (whole entry): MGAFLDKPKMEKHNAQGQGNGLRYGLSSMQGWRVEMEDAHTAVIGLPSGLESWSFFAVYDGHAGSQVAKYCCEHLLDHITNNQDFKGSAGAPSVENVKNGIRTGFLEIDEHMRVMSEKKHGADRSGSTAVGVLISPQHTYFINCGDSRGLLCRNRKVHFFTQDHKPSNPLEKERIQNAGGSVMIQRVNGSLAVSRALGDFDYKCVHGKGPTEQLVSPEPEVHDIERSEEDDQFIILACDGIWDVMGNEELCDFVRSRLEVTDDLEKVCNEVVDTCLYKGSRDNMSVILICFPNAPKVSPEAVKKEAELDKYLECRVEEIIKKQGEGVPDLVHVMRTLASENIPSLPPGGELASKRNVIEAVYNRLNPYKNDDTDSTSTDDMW

[4] = Inhibition of PP2A using Ac-DDEMT(P)GYVATR-NH2 as substrate at 40 uM after 10 mins by BIOMOL GREEN assay
[5] = Selectivity ratio for PPM1Dc over PPM1A
[6] = target: T1, Protein phosphatase 1D (Homo sapiens); assay: Inhibition of PPM1D in human MCF7 cells assessed as increase in p53 phosphorylation at Ser15 by Western blot analysis; type: cell-based
[7] = target: T1, Protein phosphatase 1D (Homo sapiens); assay: Inhibition of PPM1D in UV-irradiated human MCF7 cells assessed as increase in p53 phosphorylation at Ser15 measuring p53 protein level by Western blot analysis; type: cell-based
MCF7 [8] = assay: Antiproliferative activity against human MCF7 cells overexpressing PPM1D after 1 to 5 days by trypan blue assay; type: functional, cell-based
A549 = assay: Antiproliferative activity against human A549 cells at 40 uM after 1 to 5 days by trypan blue assay; type: functional, cell-based
MCF7 [9] = assay: Induction of cell cycle arrest in human MCF7 cells assessed as increase in accumulation at Sub-G1 phase at 40 uM after 1 day by propidium iodide staining-based flow cytometry; type: functional
MCF7 [10] = assay: Induction of cell cycle arrest in human MCF7 cells assessed as accumulation at Sub-G1 phase at 40 uM after 3 days by propidium iodide staining-based flow cytometry (reference value: 9.4 %); type: functional
MCF7 [11] = assay: Induction of cell cycle arrest in human MCF7 cells assessed as accumulation at Sub-G1 phase at 40 uM after 5 days by propidium iodide staining-based flow cytometry (reference value: 8.1 %); type: functional
MCF7 [12] = assay: Induction of cell cycle arrest in human MCF7 cells assessed as accumulation at G1 phase at 40 uM after 1 day by propidium iodide staining-based flow cytometry (reference value: 45.6 %); type: functional
MCF7 [13] = assay: Induction of cell cycle arrest in human MCF7 cells assessed as accumulation at G1 phase at 40 uM after 3 days by propidium iodide staining-based flow cytometry (reference value: 38.5 %); type: functional
MCF7 [14] = assay: Induction of cell cycle arrest in human MCF7 cells assessed as accumulation at G1 phase at 40 uM after 5 days by propidium iodide staining-based flow cytometry (reference value: 57 %); type: functional
MCF7 [15] = assay: Induction of cell cycle arrest in human MCF7 cells assessed as accumulation at […] phase at 40 uM after 1 day by propidium iodide staining-based flow cytometry (reference value: 24 %); type: functional
MCF7 [16] = assay: Induction of cell cycle arrest in human MCF7 cells assessed as accumulation at […] phase at 40 uM after 3 days by propidium iodide staining-based flow cytometry (reference value: 29.3 %); type: functional
MCF7 [17] = assay: Induction of cell cycle arrest in human MCF7 cells assessed as accumulation at […] phase at 40 uM after 5 days by propidium iodide staining-based flow cytometry (reference value: 13.8 %); type: functional
MCF7 [18] = assay: Induction of cell cycle arrest in human MCF7 cells assessed as accumulation at G2/M phase at 40 uM after 1 day by propidium iodide staining-based flow cytometry (reference value: 21.4 %); type: functional
MCF7 [19] = assay: Induction of cell cycle arrest in human MCF7 cells assessed as accumulation at G2/M phase at 40 uM after 3 days by propidium iodide staining-based flow cytometry (reference value: 22.9 %); type: functional
MCF7 [20] = assay: Induction of cell cycle arrest in human MCF7 cells assessed as accumulation at G2/M phase at 40 uM after 5 days by propidium iodide staining-based flow cytometry (reference value: 21.2 %); type: functional
MCF7 [21] = assay: Induction of cell cycle arrest in human MCF7 cells assessed as accumulation at Sub-G1 phase at 40 uM by propidium iodide staining-based flow cytometry; type: functional; details: TDE = time-dependent effect
MCF7 [22] = assay: Increase in PPM1D protein expression in human MCF7 cells by Western blot analysis; type: functional, cell-based
MCF7 [23] = assay: Increase in PPM1D protein expression in human MCF7 cells at 10 uM after 24 hrs by immunofluorescence analysis; type: functional, cell-based
Protein phosphatase 1D = target: T3, Protein phosphatase 1D (Homo sapiens, UniProt O15297); assay: Inhibition of N-terminal histidine-tagged PPM1Dc after 10 mins using BIOMOL GREEN assay
T3 sequence (O15297 whole entry): T1 sequence (whole entry)

**Q.** For `C[C@H]1C[C@@H](O)[C@H]2C[C@H](O)[C@@H]3[C@](C)(CO)C[C@H](O)C[C@@]3(C)[C@@H]2C1`, which inhibition [1] is on record?
**A.** The inhibition was 6.3%.

**Q.** And the Activity (MCF7 [2])?
**A.** The Activity was “inactive”.

**Q.** Which inhibition [1] does the source give for `CC[Si](CC)(CC)O[C@@H]1C[C@H](C)C[C@@H]2[C@@H]1C[C@H](O[Si](C)(C)C(C)(C)C)[C@H]1[C@@]2(C)C[C@@H]2C[C@@]1(C)C(O)O2` (stereo not given in full) here?
**A.** The inhibition was 87.1%.

**Q.** What does the source list for `CC[Si](CC)(CC)O[C@@H]1C[C@H](C)C[C@@H]2[C@@H]1C[C@H](O[Si](C)(C)C(C)(C)C)[C@@H]1[C@](C)(CO)C[C@H](O)C[C@@]21C`?
**A.** inhibition [3]: 68%; inhibition [4]: 11%; Selectivity ratio [5]: 50; inhibition [1]: 97.1%; inhibition [6]: Active; inhibition [7]: Active; Activity (MCF7 [8]): Dose-dependent effect; Activity (MCF7 [2]): >60%; Activity (A549): inactive; Activity (MCF7 [9]): 5.3%; Activity (MCF7 [10]): 16.4%; Activity (MCF7 [11]): 25.3%; Activity (MCF7 [12]): 39%; Activity (MCF7 [13]): 39.3%; Activity (MCF7 [14]): 46.8%; Activity (MCF7 [15]): 29.8%; Activity (MCF7 [16]): 16%; Activity (MCF7 [17]): 15%; Activity (MCF7 [18]): 16.8%; Activity (MCF7 [19]): 28.2%; Activity (MCF7 [20]): 12.9%; Activity (MCF7 [21]): tde; Activity (MCF7 [22]): Active; Activity (MCF7 [23]): Active; pIC50 (Protein phosphatase 1D): 6.32

**Q.** Which inhibition [1] does the source give for `C[C@H]1C[C@@H](O)[C@H]2C[C@H](O[Si](C)(C)C(C)(C)C)[C@@H]3[C@](C)(CO)C[C@H](O)C[C@@]3(C)[C@@H]2C1` here?
**A.** The inhibition was 25.1%.

**Q.** For `CC[Si](CC)(CC)O[C@@H]1C[C@H](C)C[C@@H]2[C@@H]1C[C@H](O[Si](C)(C)C(C)(C)C)[C@@H]1[C@](C)(CO)CC(=O)C[C@@]21C`, which inhibition [1] is on record?
**A.** The inhibition was 79.4%.
